Here are results for 26 compounds from patent publication US8637525B2, “Compounds for the reduction of beta-amyloid production” (Bristol-Myers Squibb Company, priority 2009, dated 2014).

Molecules are shown by their SMILES. Counter-ions that a name gives are not always drawn. Like-named read-outs stand apart in the source and are kept apart here.

This experiment relates to Aβ1-42 production. Nature of the experiment: Cellular assay for inhibition of Aβ1-42 production (H4 APP751 SWE clone 8.20). As to conditions: H4 APP751 SWE clone 8.20 cells, 19 h incubation. In kind it is cell-based. Put shortly:
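Compound-treated cells were incubated 19 h at 37 °C in 5% CO2. Aβ42 in the cell plate was detected overnight at 4 °C with an Aβ42 neoepitope antibody (565, Wallac-labelled, 0.8 ng/well) plus N-terminal antibody 26D6 (APC, 75 ng/well) in 40 mM Tris-HCl pH 7.4, 0.2% BSA. IC50s came from curve fitting.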

Setting [1] is: 19 h, read-out: Activity Rating (Aβ42 cellular IC50), numeric value.
Setting [2] is: class symbols, read-out: Activity Rating (Aβ42 cellular IC50).
The mark [3] stands for this setting: 19 h, class symbols, read-out: Activity Rating (Aβ42 cellular IC50).

Consider `CNc1nc(Nc2ccc(-n3cnc(Cl)c3)c(OC)c2)nc2c1/C(=N/OC)CC2c1ccccc1` (centres unmarked) [Example 201, (E)-2-(4-(4-chloro-1H-imidazol-1-yl)-3-methoxyphenylamino)-4-(methylamino)-7-phenyl-6,7-dihydro-5H-cyclopenta[d]pyrimidin-5-one O-methyl oxime], for which the IC50 under setting [1] was 5.3 nM.

Consider `CCNc1nc(Nc2ccc(-n3ncnc3C)c(F)c2)nc2c1COCC2c1ccc(F)c(F)c1` (centres unmarked) [Example 116A, 8-(3,4-difluorophenyl)-N4-ethyl-N2-(3-fluoro-4-(5-methyl-1H-1,2,4-triazol-1-yl)phenyl)-7,8-dihydro-5H-pyrano[4,3-d]pyrimidine-2,4-diamine], for which the concentration for half-maximal inhibition (IC50) under setting [2] lay within 1.5 to 9.9 nM. In the case of `CNc1nc(Nc2ccc(-n3cnc(Cl)c3)c(OC)c2)nc2c1C(=O)CC2c1ccccc1` (racemic) [Example 200, (±)-2-(4-(4-chloro-1H-imidazol-1-yl)-3-methoxyphenylamino)-4-(methylamino)-7-phenyl-6,7-dihydro-5H-cyclopenta[d]pyrimidin-5-one], under setting [3], the IC50 fell in the range of 10 to 100 nM. Turning to `COc1cc(Nc2nc3c(c(N4CC[C@@H](F)C4)n2)COC3c2ccc(F)cc2)ccc1-n1cnc(Cl)c1` (mixture of isomers) [Example 83, N-(4-(4-chloro-1H-imidazol-1-yl)-3-methoxyphenyl)-7-(4-fluorophenyl)-4-((R)-3-fluoropyrrolidin-1-yl)-5,7-dihydrofuro[3,4-d]pyrimidin-2-amine, 2 TFA], the half-maximal inhibitory concentration (IC50) (class symbols, TFA, read-out: Activity Rating (Aβ42 cellular IC50)) was 10 to 100 nM. Take `CNc1nc(Nc2ccc(-n3cnc(Cl)c3)c(OC)c2)nc2c1CCC2c1ccc(F)cc1` (single isomer, unassigned) [Example 11B, N^2-(4-(4-Chloro-1H-imidazol-1-yl)-3-methoxyphenyl)-7-(4-fluorophenyl)-N^4-methyl-6,7-dihydro-5H-cyclopenta[d]pyrimidine-2,4-diamine]: the IC50 under setting [3] was in the range of 1.5 to 9.9 nM. In the case of `CNc1nc(Nc2ccc(-n3cnc(C)n3)c(F)c2)nc2c1CN(S(=O)(=O)C1CC1)CC2c1ccccc1` (centres unmarked) [Example 141A, 6-(cyclopropylsulfonyl)-N2-(3-fluoro-4-(3-methyl-1H-1,2,4-triazol-1-yl)phenyl)-N4-methyl-8-phenyl-5,6,7,8-tetrahydropyrido[4,3-d]pyrimidine-2,4-diamine], the IC50 under setting [2] was 1.5 to 9.9 nM. On to `CNc1nc(Nc2ccc(-n3cnc(Cl)c3)c(OC)c2)nc2c1CCCC2c1ccccc1` (centres unmarked) [Example 203, N2-(4-(4-chloro-1H-imidazol-1-yl)-3-methoxyphenyl)-N4-methyl-8-phenyl-5,6,7,8-tetrahydroquinazoline-2,4-diamine], for which, under setting [1], the IC50 stood at 19 nM. On to `COc1cc(Nc2nc3c(c(N(C)C)n2)CCC3c2ccc(OC(F)(F)F)cc2)ccc1-n1cnc(Cl)c1` (single isomer, unassigned) [Example 100B, N^2-(4-(4-chloro-1H-imidazol-1-yl)-3-methoxyphenyl)-N^4,N^4-dimethyl-7-(4-(trifluoromethoxy)phenyl)-6,7-dihydro-5H-cyclopenta[d]pyrimidine-2,4-diamine], for which the half-inhibitory concentration (IC50) under setting [3] was 10 to 100 nM.

With `CNc1nc(Nc2ccc(-n3cnc(Cl)c3)c(OC)c2)nc2c1CN(S(C)(=O)=O)CC2c1ccccc1` (centres unmarked) [Example 129A, N2-(4-(4-chloro-1H-imidazol-1-yl)-3-methoxyphenyl)-N4-methyl-6-(methylsulfonyl)-8-phenyl-5,6,7,8-tetrahydropyrido[4,3-d]pyrimidine-2,4-diamine], the IC50 under setting [3] was 1.5 to 9.9 nM. Still for that read-out and setting: the same measure for `CCNc1nc(Nc2ccc(-n3ncnc3C)c(F)c2)nc2c1COC2c1ccc(F)cc1` (centres unmarked) [Example 78, N^4-ethyl-N^2-(3-fluoro-4-(5-methyl-1H-1,2,4-triazol-1-yl)phenyl)-7-(4-fluorophenyl)-5,7-dihydrofuro[3,4-d]pyrimidine-2,4-diamine]: 10 to 100 nM; for `CNc1nc(Nc2ccc(-c3cnn(C)c3)c(OC)c2)nc2c1CCC2c1ccccc1` (centres unmarked) [Example 209, N2-(3-methoxy-4-(1-methyl-1H-pyrazol-4-yl)phenyl)-N4-methyl-7-phenyl-6,7-dihydro-5H-cyclopenta[d]pyrimidine-2,4-diamine]: 1.5 to 9.9 nM. Turning to `CNc1nc(Nc2ccc(-n3cnc(C)n3)c(OC)c2)nc2c1CCC2c1ccc(F)cc1` (racemic) [Example 44, 7-(4-fluorophenyl)-N2-(3-methoxy-4-(3-methyl-1H-1,2,4-triazol-1-yl)phenyl)-N4-methyl-6,7-dihydro-5H-cyclopenta[d]pyrimidine-2,4-diamine], under setting [1], the IC50 amounted to 13 nM. Turning to `COc1cc(Nc2nc3c(c(N(C)C)n2)COCC3c2ccc(F)cc2)ccc1-n1cnc(Cl)c1` (centres unmarked) [Example 61A, N2-(4-(4-chloro-1H-imidazol-1-yl)-3-methoxyphenyl)-8-(4-fluorophenyl)-N4,N4-dimethyl-7,8-dihydro-5H-pyrano[4,3-d]pyrimidine-2,4-diamine], the IC50 under setting [2] fell in the range of 1.5 to 9.9 nM. For `COc1cc(Nc2nc3c(c(N4CC(F)(F)C4)n2)CCC3c2ccc(OC(F)(F)F)cc2)ccc1-n1cnc(Cl)c1` (single isomer, unassigned) [Example 99A, N-(4-(4-chloro-1H-imidazol-1-yl)-3-methoxyphenyl)-4-(3,3-difluoroazetidin-1-yl)-7-(4-(trifluoromethoxy)phenyl)-6,7-dihydro-5H-cyclopenta[d]pyrimidin-2-amine], the IC50 under setting [3] is 10 to 100 nM. For `CNc1nc(Nc2ccc(-n3cnc(Cl)c3)c(OC)c2)nc2c1CCC2c1ccc(F)cc1` (single isomer, unassigned) [Example 11A, N^2-(4-(4-Chloro-1H-imidazol-1-yl)-3-methoxyphenyl)-7-(4-fluorophenyl)-N^4-methyl-6,7-dihydro-5H-cyclopenta[d]pyrimidine-2,4-diamine], the IC50 (19 h, read-out: Activity Rating (Aβ42 cellular IC50), numeric value printed without unit) was 3.8 nM. As to `CNc1nc(Nc2ccc(F)c(OC)c2)nc2c1CCC2c1ccccc1` (centres unmarked) [Example 222, N2-(4-fluoro-3-methoxyphenyl)-N4-methyl-7-phenyl-6,7-dihydro-5H-cyclopenta[d]pyrimidine-2,4-diamine], the IC50 under setting [3] was over 1000 nM. As for `COc1cc(Nc2nc3c(c(N4CC5(CCCO5)C4)n2)CCC3c2ccccc2)ccc1-n1cnc(Cl)c1` (centres unmarked) [Example 188, N-(4-(4-chloro-1H-imidazol-1-yl)-3-methoxyphenyl)-7-phenyl-4-(5-oxa-2-azaspiro[3.4]octan-2-yl)-6,7-dihydro-5H-cyclopenta[d]pyrimidin-2-amine], the IC50 under setting [1] was 19 nM. `CNc1nc(Nc2ccc3c(c2)CCNC3)nc2c1CCC2c1ccccc1` (centres unmarked) [Example 245, N4-methyl-7-phenyl-N2-(1,2,3,4-tetrahydroisoquinolin-6-yl)-6,7-dihydro-5H-cyclopenta[d]pyrimidine-2,4-diamine]: the IC50 under setting [3] is over 1000 nM. For the compound `CNc1nc(Nc2ccc(Br)c(C#N)c2)nc2c1CCC2c1ccccc1` (centres unmarked) [Example 242, 2-bromo-5-(4-(methylamino)-7-phenyl-6,7-dihydro-5H-cyclopenta[d]pyrimidin-2-ylamino)benzonitrile], under setting [1], the IC50 was determined as 67 nM. As for `COc1cc(Nc2nc(N[C@@H](C)C3CC3)c3c(n2)C(c2ccc(F)cc2)CC3)ccc1-n1cnc(Cl)c1` (single isomer, unassigned) [Example 50A], the IC50 under setting [2] was 1.5 to 9.9 nM.

With `CCOC1CN(c2nc(Nc3ccc(-n4cnc(Cl)c4)c(OC)c3)nc3c2CCC3c2ccc(F)cc2)C1` (centres unmarked) [Example 187, N-(4-(4-chloro-1H-imidazol-1-yl)-3-methoxyphenyl)-4-(3-ethoxyazetidin-1-yl)-7-(4-fluorophenyl)-6,7-dihydro-5H-cyclopenta[d]pyrimidin-2-amine], the IC50 under setting [3] fell in the range of 10 to 100 nM. As to `COc1cc(Nc2nc3c(c(N4CC(F)(F)C4)n2)COCC3c2ccc(F)c(F)c2)ccc1-n1cnc(Cl)c1` (centres unmarked) [Example 114B, N-(4-(4-chloro-1H-imidazol-1-yl)-3-methoxyphenyl)-4-(3,3-difluoroazetidin-1-yl)-8-(3,4-difluorophenyl)-7,8-dihydro-5H-pyrano[4,3-d]pyrimidin-2-amine], the IC50 under setting [2] lay within 100 to 1000 nM. The same measure, in the same setting: the same measure for `CCC1CCCN1c1nc(Nc2ccc(-n3cnc(Cl)c3)c(OC)c2)nc2c1CCC2c1ccc(F)cc1` (single isomer, unassigned) [Example 23, N-(4-(4-chloro-1H-imidazol-1-yl)-3-methoxyphenyl)-4-(2-ethylpyrrolidin-1-yl)-7-(4-fluorophenyl)-6,7-dihydro-5H-cyclopenta[d]pyrimidin-2-amine]: 10 to 100 nM. With `Cc1ncnn1-c1ccc(Nc2nc3c(c(N(C)C)n2)COCC3c2ccc(Cl)cc2)cc1F` (single isomer, unassigned) [Example 67A, 8-(4-chlorophenyl)-N^2-(3-fluoro-4-(5-methyl-1H-1,2,4-triazol-1-yl)phenyl)-N^4,N^4-dimethyl-7,8-dihydro-5H-pyrano[4,3-d]pyrimidine-2,4-diamine], the IC50 under setting [3] lay within 10 to 100 nM. On to `CCNc1nc(Nc2ccc(-n3cnc(Cl)c3)c(OC)c2)nc2c1COCC2c1ccc(C(F)(F)F)cc1` (racemic) [Example 118, N2-(4-(4-chloro-1H-imidazol-1-yl)-3-methoxyphenyl)-N4-ethyl-8-(4-(trifluoromethyl)phenyl)-7,8-dihydro-5H-pyrano[4,3-d]pyrimidine-2,4-diamine, TFA], for which the half-inhibitory concentration (IC50) under setting [3] was 10 to 100 nM. For `COc1ccc(CN2CCc3c(nc(Nc4ccc(-n5cnc(Cl)c5)c(OC)c4)nc3N3CC[C@H](F)C3)C2c2ccc(F)cc2)cc1` (stereo partly drawn) [Example 167A, N-(4-(4-chloro-1H-imidazol-1-yl)-3-methoxyphenyl)-8-(4-fluorophenyl)-4-((S)-3-fluoropyrrolidin-1-yl)-7-(4-methoxybenzyl)-5,6,7,8-tetrahydropyrido[3,4-d]pyrimidin-2-amine], the half-inhibitory concentration (IC50) under setting [1] was 26 nM.

What is called IC50 is the midpoint of a concentration-inhibition curve.
